Reference: PMC12004451, “Characterization of the Two-Domain Peptide Binding Mechanism of the Human CGRP Receptor for CGRP and the Ultrahigh Affinity ssCGRP Variant” (Biochemistry, 2025)
Where “and” joins values, the source holds several entries; their conditions need not be identical. Identical values can stand only once. Like-named read-outs stand apart in the source and are kept apart here. Bridge positions count the residues as written; N and C are the ends. Ends that are not written are not given here. Peptide text beside a SMILES is read from it. * marks the point of attachment. 5TAMRA = CN(C)c1ccc2c(c1)Oc1cc(N(C)C)ccc1C21OC(=O)c2cc(C(=O)*)ccc21

Experiments:
[1] = target: T1, CGRP receptor (Nluc-CLR:RAMP1) (Homo sapiens, UniProt O60894+Q16602); assay: nanoBRET association kinetics of TAMRA probes; format: binding
T1 construct: N-terminally Nanoluciferase (NLuc)-tagged CLR (pcDNA3.1(+)sec/NanoLuc-GSGIS-CLR.23-461); Wild-type CLR and RAMP expression plasmids were obtained from cDNA.org; sec (vector secretion signal before NanoLuc) (N); expressed in transfected cells; host or cells: COS-7 cells, membrane preparation
Method: After 2 days, the cells were washed with PBS and harvested with ice-cold PBS + 5 mM EDTA. The cells were pelleted in a centrifuge at 1000g for 5 min at 4 °C and resuspended in a hypotonic buffer (25 mM NaHEPES pH 7.5, 2 mM MgCl2, 1 mM EDTA, and 1× EDTA-free PIERCE protease inhibitor tablet). After resuspension, cells were homogenized with an Ultra Turrax for 30 s at 10,000 rpm followed by a 10 min incubation. Cell debris was pelleted at 800g for 10 min and the supernatant was transferred to ultracentrifuge tubes and centrifuged at 100,000g for 1 h. Membranes were resuspended in a wash buffer (25 mM NaHEPES pH 7.5, 250 mM NaCl, 2 mM MgCl2, 1 mM EDTA, and 1× protease inhibitor tablet). The homogenization and ultracentrifugation were repeated once more and the membranes were resuspended in storage buffer (25 mM NaHEPES pH 7.5, 25 mM NaCl, 2 mM MgCl2, 10% v/v glycerol, and 1× protease inhibitor tablet). The resuspended membranes were homogenized, aliquoted, and flash frozen in liquid nitrogen for storage at -80 °C. Total protein was quantitated using the DC protein assay (BioRad) per the manufacturer's instructions. The concentration of NLuc-CLR was determined by comparing the membrane prep luminescence to a standard curve using purified NLuc enzyme (Promega; […]). […] Costar 3912). […] The observed association rates (kobs) were plotted against probe concentration and the data was analyzed by linear regression. The kon and koff were obtained as the slope and y-intercept, respectively.

[2] = target: T1, CGRP receptor (Nluc-CLR:RAMP1); assay: nanoBRET equilibrium competition binding, Nluc-CLR:RAMP1 membranes; conditions: room temperature, Cheng-Prusoff, mean ± SEM, n=3
Method: After 2 days, the cells were washed with PBS and harvested with ice-cold PBS + 5 mM EDTA. The cells were pelleted in a centrifuge at 1000g for 5 min at 4 °C and resuspended in a hypotonic buffer (25 mM NaHEPES pH 7.5, 2 mM MgCl2, 1 mM EDTA, and 1× EDTA-free PIERCE protease inhibitor tablet). After resuspension, cells were homogenized with an Ultra Turrax for 30 s at 10,000 rpm followed by a 10 min incubation. Cell debris was pelleted at 800g for 10 min and the supernatant was transferred to ultracentrifuge tubes and centrifuged at 100,000g for 1 h. Membranes were resuspended in a wash buffer (25 mM NaHEPES pH 7.5, 250 mM NaCl, 2 mM MgCl2, 1 mM EDTA, and 1× protease inhibitor tablet). The homogenization and ultracentrifugation were repeated once more and the membranes were resuspended in storage buffer (25 mM NaHEPES pH 7.5, 25 mM NaCl, 2 mM MgCl2, 10% v/v glycerol, and 1× protease inhibitor tablet). The resuspended membranes were homogenized, aliquoted, and flash frozen in liquid nitrogen for storage at -80 °C. Total protein was quantitated using the DC protein assay (BioRad) per the manufacturer's instructions. The concentration of NLuc-CLR was determined by comparing the membrane prep luminescence to a standard curve using purified NLuc enzyme (Promega; […]). […] The Cheng-Prusoff correction[30] was used to calculate the Ki from the IC50.

[3] = target: T1, CGRP receptor (Nluc-CLR:RAMP1); assay: nanoBRET competition association kinetics (Motulsky-Mahan); format: binding; conditions: for Kd: mean ± SEM, n=3, read-out: Kd calc (koff/kon)
Method: Membrane preparation was performed as previously described.[29] COS-7 cells in ten […] plastic culture dishes (Corning; 430599) were transiently transfected with 2 μg NLuc-CLR, 2 μg RAMP1, and 46 μg empty pcDNA3.1(+) expression plasmids/dish with 75 μg Polyethylenimine (PEI)/dish. After 2 days, the cells were washed with PBS and harvested with ice-cold PBS + 5 mM EDTA. The cells were pelleted in a centrifuge at 1000g for 5 min at 4 °C and resuspended in a hypotonic buffer (25 mM NaHEPES pH 7.5, 2 mM MgCl2, 1 mM EDTA, and 1× EDTA-free PIERCE protease inhibitor tablet). After resuspension, cells were homogenized with an Ultra Turrax for 30 s at 10,000 rpm followed by a 10 min incubation. Cell debris was pelleted at 800g for 10 min and the supernatant was transferred to ultracentrifuge tubes and centrifuged at 100,000g for 1 h. Membranes were resuspended in a wash buffer (25 mM NaHEPES pH 7.5, 250 mM NaCl, 2 mM MgCl2, 1 mM EDTA, and 1× protease inhibitor tablet). The homogenization and ultracentrifugation were repeated once more and the membranes were resuspended in storage buffer (25 mM NaHEPES pH 7.5, 25 mM NaCl, 2 mM MgCl2, 10% v/v glycerol, and 1× protease inhibitor tablet). The resuspended membranes were homogenized, aliquoted, and flash frozen in liquid nitrogen for storage at −80 °C. Total protein was quantitated using the DC protein assay (BioRad) per the manufacturer’s instructions. The concentration of NLuc-CLR was determined by comparing the membrane prep luminescence to a standard curve using purified NLuc enzyme (Promega; G9711). The total protein concentration was 0.91 mg/mL and the NLuc-CLR was 7.35 nM.
Emission at 460 and 610 nm were measured every 16 s for 45 min with the PolarSTAR Omega plate reader mixing 300 rpm for 1 s before each cycle. The curves were fit using GraphPad Prism to the Motulsky-Mahan competition kinetics equation[31] modified to account for the signal decay component as previously described[32] to determine the kon and koff of the competitor. The Kd (koff/kon), half-life (ln 2/koff), and residence time (1/koff) values were calculated.

[4] = competition against 10 nM CGRP(27-37)*-TAMRA probe, 2 h, read-out: Ki

| Compound | kon ([1]; association kinetics, 25 °C, kobs vs probe concentration, slope of linear regression, fit of first 10 min (full 1 h 15 min for ssCGRP(8-37)-TAMRA), mean ± SEM, n=3) [M⁻¹ s⁻¹] | koff ([1]; association kinetics, 25 °C, y-intercept of kobs vs probe concentration, mean ± SEM, n=3) [s⁻¹] | half-life ([1]; from association kinetics) [s] | Ki [2, 4] [nM] | koff [3] [s⁻¹] | kon [3] [M⁻¹ s⁻¹] | Residence time (1/koff) ([3]; from competition kinetics) | t1/2 (ln 2/koff) ([3]; from competition kinetics) [min] | Kd ([3]; from competition kinetics) [nM] | Ki ([2]; G protein coupled state (30 μM sumo-miniGs), 3 nM AM2/IMD(8-47)-TAMRA probe, 8 h, read-out: Ki + mGs) [nM] | Ki ([2]; G protein uncoupled state (50 μM GTPγS), 30 nM AM2/IMD(8-47)-TAMRA probe, 8 h, read-out: Ki + GTPγS) [nM] | residence time ([3]; from competition kinetics) [min] |
| --- | --- | --- | --- | --- | --- | --- | --- | --- | --- | --- | --- | --- |
| CC(C)[C@H](NC(=O)[C@H](CC(=O)O)NC(=O)[C@@H](NC(=O)[C@@H]1CCCN1C(=O)[C@@H](NC(=O)[C@@H](N)Cc1ccccc1)C(C)C)[C@@H](C)O)C(=O)NCC(=O)N1CCC[C@H]1C(=O)N[C@@H](CCCCNC(=O)c1ccc2c(c1)C(=O)OC21c2ccc(N(C)C)cc2Oc2cc(N(C)C)ccc21)C(=O)N[C@@H](CO)C(=O)N[C@@H](Cc1ccc(O)cc1)C(N)=O [CGRP(27-37)*-TAMRA, αCGRP(27-37) N31D/S34P/K35-TAMRA/A36S/F37Y] (H-FVPTDVGPK(5TAMRA)SY-NH2; N-terminus assumed) | 2.75e+06 | 0.0635 | 11 | – | – | – | – | – | – | – | – | – |
| FVPTDVGPWSF-NH2 [ssCGRP(27-37)] | – | – | – | 0.527 ± 0.039 | 0.00222 | 3.22e+06 | 7.57 ± 0.27 min and ~8 min | 5.24 ± 0.18 | 0.73 | – | – | – |
| CC(C)C[C@H](NC(=O)CNC(=O)[C@H](C)NC(=O)[C@H](CC(C)C)NC(=O)[C@H](CCCNC(=N)N)NC(=O)[C@H](Cc1c[nH]cn1)NC(=O)[C@@H](NC(=O)[C@@H](NC(=O)[C@@H]1CSSC[C@H](NC(=O)[C@H](C)N)C(=O)N[C@@H](CC(=O)O)C(=O)N[C@@H]([C@@H](C)O)C(=O)N[C@@H](C)C(=O)N[C@@H]([C@@H](C)O)C(=O)N1)C(C)C)[C@@H](C)O)C(=O)N[C@@H](CC(C)C)C(=O)N[C@@H](CO)C(=O)N[C@@H](CCCNC(=N)N)C(=O)N[C@@H](CO)C(=O)NCC(=O)NCC(=O)N[C@H](C(=O)N[C@H](C(=O)N[C@@H](CCCCN)C(=O)N[C@@H](CC(N)=O)C(=O)N[C@@H](CC(N)=O)C(=O)N[C@@H](Cc1ccccc1)C(=O)N[C@H](C(=O)N1CCC[C@H]1C(=O)N[C@H](C(=O)N[C@@H](CC(=O)O)C(=O)N[C@H](C(=O)NCC(=O)N1CCC[C@H]1C(=O)N[C@@H](Cc1c[nH]c2ccccc12)C(=O)N[C@@H](CO)C(=O)N[C@@H](Cc1ccccc1)C(N)=O)C(C)C)[C@@H](C)O)C(C)C)C(C)C)C(C)C [ssCGRP(1-37)] (H-ACDTATCVTHRLAGLLSRSGGVVKNNFVPTDVGPWSF-NH2; disulfide 2-7) | – | – | – | – | – | – | – | – | – | 0.19 ± 0.01 | 0.248 ± 0.008 | – |
| FVPTNVGSKAF-NH2 [CGRP(27-37), reference compound] | – | – | – | 1050 | 0.203 | 195000 | 0.087 ± 0.015 min | 0.06 ± 0.01 | 1040 | – | – | ~0.0833 |
